Earlier results in patent US20120308672A1, “COMPOSITIONS FOR HAIR AND BODY APPLICATION” (EQYSS GROOMING PRODUCTS, priority 2004, published 2012).

Tested on: mosquitoes
Conditions: topical repellent

In the case of CCN(CC)C(=O)c1cccc(C)c1 [DEET, N,N,-diethyl-m-toluamide], the protection against mosquitoes is listed as “effective and long-lasting protection”.
